Experimental data reported in ChEMBL document CHEMBL3112450, “Synthesis and in vitro antitumor evaluation of primary amine substituted quinazoline linked benzimidazole” (Bioorg Med Chem Lett, 2014).

Test system: SF-268
Test: Cytotoxicity against human SF268 cells assessed as cell growth at 10^-5 M after 48 hrs by SRB assay
Type: functional
Conditions: SF-268, 48 h, read-out: Activity

Compound	growth at 10 µM [%]
C=CCn1c(C)nc2ccc(Nc3nc(Nc4ncccn4)nc4ccccc34)cc21	94.8

Test system: SK-OV-3
Test: Cytotoxicity against human SKOV3 cells assessed as cell growth at 10^-5 M after 48 hrs by SRB assay
Type: functional
Conditions: SK-OV-3, 48 h, read-out: Activity

Compound	growth at 10 µM [%]
C=CCn1c(C)nc2ccc(Nc3nc(Nc4ncccn4)nc4ccccc34)cc21	104

Test system: DU-145
Test: Cytotoxicity against human DU145 cells assessed as cell growth at 10^-5 M after 48 hrs by SRB assay
Type: functional
Conditions: DU-145, 48 h, read-out: Activity

Compound	growth at 10 µM [%]
C=CCn1c(C)nc2ccc(Nc3nc(Nc4ncccn4)nc4ccccc34)cc21	112

Test system: SN12C
Test: Cytotoxicity against human SN12C cells assessed as cell growth at 10^-5 M after 48 hrs by SRB assay
Type: functional
Conditions: read-out: Activity

Compound	growth at 10 µM [%]
C=CCn1c(C)nc2ccc(Nc3nc(Nc4ncccn4)nc4ccccc34)cc21	97.6

Test system: SW-620
Test: Cytotoxicity against human SW620 cells assessed as cell growth at 10^-5 M after 48 hrs by SRB assay
Type: functional
Conditions: SW-620, 48 h, read-out: Activity

Compound	growth at 10 µM [%]
C=CCn1c(C)nc2ccc(Nc3nc(Nc4ncccn4)nc4ccccc34)cc21	100

Test system: SK-MEL-5
Test: Cytotoxicity against human SK-MEL-5 cells assessed as cell growth at 10^-5 M after 48 hrs by SRB assay
Type: functional
Conditions: SK-MEL-5, 48 h, read-out: Activity

Compound	growth at 10 µM [%]
C=CCn1c(C)nc2ccc(Nc3nc(Nc4ncccn4)nc4ccccc34)cc21	92.9

Test system: HOP-62
Test: Cytotoxicity against human HOP62 cells assessed as cell growth at 10^-5 M after 48 hrs by SRB assay
Type: functional
Conditions: HOP-62, 48 h, read-out: Activity

Compound	growth at 10 µM [%]
C=CCn1c(C)nc2ccc(Nc3nc(Nc4ncccn4)nc4ccccc34)cc21	84.8

Test system: PC-3
Test: Cytotoxicity against human PC3 cells assessed as cell growth at 10^-5 M after 48 hrs by SRB assay
Type: functional
Conditions: PC-3, 48 h, read-out: Activity

Compound	growth at 10 µM [%]
C=CCn1c(C)nc2ccc(Nc3nc(Nc4ncccn4)nc4ccccc34)cc21	89.2

Test system: HCT-15
Test: Cytotoxicity against human HCT15 cells assessed as cell growth at 10^-5 M after 48 hrs by SRB assay
Type: functional
Conditions: HCT-15, 48 h, read-out: Activity

Compound	growth at 10 µM [%]
C=CCn1c(C)nc2ccc(Nc3nc(Nc4ncccn4)nc4ccccc34)cc21	111

Test system: HOP-92
Test: Cytotoxicity against human HOP92 cells assessed as cell growth at 10^-5 M after 48 hrs by SRB assay
Type: functional
Conditions: HOP-92, 48 h, read-out: Activity

Compound	growth at 10 µM [%]
C=CCn1c(C)nc2ccc(Nc3nc(Nc4ncccn4)nc4ccccc34)cc21	70.5

Test system: LOX IMVI
Test: Cytotoxicity against human LOXIMVI cells assessed as cell growth at 10^-5 M after 48 hrs by SRB assay
Type: functional
Conditions: read-out: Activity

Compound	growth at 10 µM [%]
C=CCn1c(C)nc2ccc(Nc3nc(Nc4ncccn4)nc4ccccc34)cc21	85.3

Test system: SR
Test: Cytotoxicity against human SR cells assessed as cell growth at 10^-5 M after 48 hrs by SRB assay
Type: functional
Conditions: read-out: Activity

Compound	growth at 10 µM [%]
C=CCn1c(C)nc2ccc(Nc3nc(Nc4ncccn4)nc4ccccc34)cc21	121

Test system: SK-MEL-28
Test: Cytotoxicity against human SK-MEL-28 cells assessed as cell growth at 10^-5 M after 48 hrs by SRB assay
Type: functional
Conditions: SK-MEL-28, 48 h, read-out: Activity

Compound	growth at 10 µM [%]
C=CCn1c(C)nc2ccc(Nc3nc(Nc4ncccn4)nc4ccccc34)cc21	111

Test system: RPMI-8226
Test: Cytotoxicity against human RPMI8226 cells assessed as cell growth at 10^-5 M after 48 hrs by SRB assay
Type: functional
Conditions: RPMI-8226, 48 h, read-out: Activity

Compound	growth at 10 µM [%]
C=CCn1c(C)nc2ccc(Nc3nc(Nc4ncccn4)nc4ccccc34)cc21	70.7

Test system: TK-10
Test: Cytotoxicity against human TK10 cells assessed as cell growth at 10^-5 M after 48 hrs by SRB assay
Type: functional
Conditions: TK-10, 48 h, read-out: Activity

Compound	growth at 10 µM [%]
C=CCn1c(C)nc2ccc(Nc3nc(Nc4ncccn4)nc4ccccc34)cc21	118

Test system: ACHN
Test: Cytotoxicity against human ACHN cells assessed as cell growth at 10^-5 M after 48 hrs by SRB assay
Type: functional
Conditions: read-out: Activity

Compound	growth at 10 µM [%]
C=CCn1c(C)nc2ccc(Nc3nc(Nc4ncccn4)nc4ccccc34)cc21	103

Test system: NCI-H23
Test: Cytotoxicity against human NCI-H23 cells assessed as cell growth at 10^-5 M after 48 hrs by SRB assay
Type: functional
Conditions: NCI-H23, 48 h, read-out: Activity

Compound	growth at 10 µM [%]
C=CCn1c(C)nc2ccc(Nc3nc(Nc4ncccn4)nc4ccccc34)cc21	82.8

Test system: 786-0
Test: Cytotoxicity against human 786-0 cells assessed as cell growth at 10^-5 M after 48 hrs by SRB assay
Type: functional
Conditions: 786-0, 48 h, read-out: Activity

Compound	growth at 10 µM [%]
C=CCn1c(C)nc2ccc(Nc3nc(Nc4ncccn4)nc4ccccc34)cc21	106

Test system: RXF 393
Test: Cytotoxicity against human RXF393 cells assessed as cell growth at 10^-5 M after 48 hrs by SRB assay
Type: functional
Conditions: RXF 393, 48 h, read-out: Activity

Compound	growth at 10 µM [%]
C=CCn1c(C)nc2ccc(Nc3nc(Nc4ncccn4)nc4ccccc34)cc21	114

Test system: COLO 205
Test: Cytotoxicity against human COLO205 cells assessed as cell growth at 10^-5 M after 48 hrs by SRB assay
Type: functional
Conditions: COLO 205, 48 h, read-out: Activity

Compound	growth at 10 µM [%]
C=CCn1c(C)nc2ccc(Nc3nc(Nc4ncccn4)nc4ccccc34)cc21	102

Test system: SK-MEL-2
Test: Cytotoxicity against human SK-MEL-2 cells assessed as cell growth at 10^-5 M after 48 hrs by SRB assay
Type: functional
Conditions: SK-MEL-2, 48 h, read-out: Activity

Compound	growth at 10 µM [%]
C=CCn1c(C)nc2ccc(Nc3nc(Nc4ncccn4)nc4ccccc34)cc21	100

Test system: CCRF-CEM
Test: Cytotoxicity against human CCRF-CEM cells assessed as cell growth at 10^-5 M after 48 hrs by SRB assay
Type: functional
Conditions: read-out: Activity

Compound	growth at 10 µM [%]
C=CCn1c(C)nc2ccc(Nc3nc(Nc4ncccn4)nc4ccccc34)cc21	84.8

Test system: A498
Test: Cytotoxicity against human A498 cells assessed as cell growth at 10^-5 M after 48 hrs by SRB assay
Type: functional
Conditions: A498, 48 h, read-out: Activity

Compound	growth at 10 µM [%]
C=CCn1c(C)nc2ccc(Nc3nc(Nc4ncccn4)nc4ccccc34)cc21	76.8

Test system: HL-60(TB)
Test: Cytotoxicity against human HL-60(TB) cells assessed as cell growth at 10^-5 M after 48 hrs by SRB assay
Type: functional
Conditions: HL-60, 48 h, read-out: Activity

Compound	growth at 10 µM [%]
C=CCn1c(C)nc2ccc(Nc3nc(Nc4ncccn4)nc4ccccc34)cc21	94

Test system: NCI-H322M
Test: Cytotoxicity against human NCI-H322M cells assessed as cell growth at 10^-5 M after 48 hrs by SRB assay
Type: functional
Conditions: read-out: Activity

Compound	growth at 10 µM [%]
C=CCn1c(C)nc2ccc(Nc3nc(Nc4ncccn4)nc4ccccc34)cc21	100

Test system: HT-29
Test: Cytotoxicity against human HT-29 cells assessed as cell growth at 10^-5 M after 48 hrs by SRB assay
Type: functional
Conditions: HT-29, 48 h, read-out: Activity

Compound	growth at 10 µM [%]
C=CCn1c(C)nc2ccc(Nc3nc(Nc4ncccn4)nc4ccccc34)cc21	104

Test system: Malme-3M
Test: Cytotoxicity against human MALME-3M cells assessed as cell growth at 10^-5 M after 48 hrs by SRB assay
Type: functional
Conditions: read-out: Activity

Compound	growth at 10 µM [%]
C=CCn1c(C)nc2ccc(Nc3nc(Nc4ncccn4)nc4ccccc34)cc21	99

Test system: T47D
Test: Cytotoxicity against human T47D cells assessed as cell growth at 10^-5 M after 48 hrs by SRB assay
Type: functional
Conditions: read-out: Activity

Compound	growth at 10 µM [%]
C=CCn1c(C)nc2ccc(Nc3nc(Nc4ncccn4)nc4ccccc34)cc21	55.8

Test system: K562
Test: Cytotoxicity against human K562 cells assessed as cell growth at 10^-5 M after 48 hrs by SRB assay
Type: functional
Conditions: K562, 48 h, read-out: Activity

Compound	growth at 10 µM [%]
C=CCn1c(C)nc2ccc(Nc3nc(Nc4ncccn4)nc4ccccc34)cc21	83

Test system: not listed separately
Test: Cytotoxicity against human Hs578T cells assessed as cell growth at 10^-5 M after 48 hrs by SRB assay
Type: functional
Conditions: Hs-578T, read-out: Activity

Compound	growth at 10 µM [%]
C=CCn1c(C)nc2ccc(Nc3nc(Nc4ncccn4)nc4ccccc34)cc21	87.7

Test system: SF-539
Test: Cytotoxicity against human SF539 cells assessed as cell growth at 10^-5 M after 48 hrs by SRB assay
Type: functional
Conditions: SF-539, 48 h, read-out: Activity

Compound	growth at 10 µM [%]
C=CCn1c(C)nc2ccc(Nc3nc(Nc4ncccn4)nc4ccccc34)cc21	103

Test system: OVCAR-8
Test: Cytotoxicity against human OVCAR8 cells assessed as cell growth at 10^-5 M after 48 hrs by SRB assay
Type: functional
Conditions: OVCAR-8, 48 h, read-out: Activity

Compound	growth at 10 µM [%]
C=CCn1c(C)nc2ccc(Nc3nc(Nc4ncccn4)nc4ccccc34)cc21	94.3

Test system: BT-549
Test: Cytotoxicity against human BT549 cells assessed as cell growth at 10^-5 M after 48 hrs by SRB assay
Type: functional
Conditions: BT-549, 48 h, read-out: Activity

Compound	growth at 10 µM [%]
C=CCn1c(C)nc2ccc(Nc3nc(Nc4ncccn4)nc4ccccc34)cc21	82.8

Test system: A549
Test: Cytotoxicity against human A549 cells assessed as cell growth at 10^-5 M after 48 hrs by SRB assay
Type: functional
Conditions: A549, 48 h, read-out: Activity

Compound	growth at 10 µM [%]
C=CCn1c(C)nc2ccc(Nc3nc(Nc4ncccn4)nc4ccccc34)cc21	90.3

Test system: not listed separately
Test: Cytotoxicity against human OVCAR4 cells assessed as cell growth at 10^-5 M after 48 hrs by SRB assay
Type: functional
Conditions: OVCAR-4, 48 h, read-out: Activity

Compound	growth at 10 µM [%]
C=CCn1c(C)nc2ccc(Nc3nc(Nc4ncccn4)nc4ccccc34)cc21	85.6

Test system: OVCAR-3
Test: Cytotoxicity against human OVCAR3 cells assessed as cell growth at 10^-5 M after 48 hrs by SRB assay
Type: functional
Conditions: OVCAR-3, 48 h, read-out: Activity

Compound	growth at 10 µM [%]
C=CCn1c(C)nc2ccc(Nc3nc(Nc4ncccn4)nc4ccccc34)cc21	99.3

Test system: CAKI-1
Test: Cytotoxicity against human Caki1 cells assessed as cell growth at 10^-5 M after 48 hrs by SRB assay
Type: functional
Conditions: CAKI-1, 48 h, read-out: Activity

Compound	growth at 10 µM [%]
C=CCn1c(C)nc2ccc(Nc3nc(Nc4ncccn4)nc4ccccc34)cc21	75.6

Test system: SNB-75
Test: Cytotoxicity against human SNB75 cells assessed as cell growth at 10^-5 M after 48 hrs by SRB assay
Type: functional
Conditions: SNB-75, 48 h, read-out: Activity

Compound	growth at 10 µM [%]
C=CCn1c(C)nc2ccc(Nc3nc(Nc4ncccn4)nc4ccccc34)cc21	78.8
